According to patent US10800792B2, “Inhibitors of Bruton's tyrosine kinase and method of their use” (JANSSEN PHARMACEUTICA NV, priority 2015, dated 2020):

Biological target: unphosphorylated-BTK kinase domain (UP-BTK), GST-tagged human BTK (389-659aa) (Homo sapiens (Human), UniProt Q06187)
Assay: BTK kinase Lanthascreen binding assay
Settings: 60 minutes incubation, pIC50 = negative log of the IC50 in molar
How it was run: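 Measures how well compounds compete with a fluorescence-labelled tracer for binding to BTK in its unphosphorylated state. IC50 values were fitted and expressed as pIC50 (negative logarithm of the molar IC50).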

[1] = Lanthascreen tracer competition

Sequence of unphosphorylated-BTK kinase domain (UP-BTK), GST-tagged human BTK (389-659aa) (Q06187 389-659): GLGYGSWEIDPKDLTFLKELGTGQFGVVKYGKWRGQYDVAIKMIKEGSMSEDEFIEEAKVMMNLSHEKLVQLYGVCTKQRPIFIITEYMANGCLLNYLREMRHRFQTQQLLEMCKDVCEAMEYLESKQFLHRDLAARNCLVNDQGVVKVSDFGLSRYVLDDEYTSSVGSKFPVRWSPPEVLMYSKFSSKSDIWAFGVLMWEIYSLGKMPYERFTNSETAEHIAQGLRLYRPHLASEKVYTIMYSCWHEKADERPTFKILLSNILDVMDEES

| SMILES | BTK_I_binding pIC50 [1] | BTK_I_binding pIC50 (50 nM Tracer 236) |
| --- | --- | --- |
| CC(C)(C)OC(=O)N1CCC(NC(=O)c2sc3nccc4c3c2NC(=O)N4c2ccc(Oc3ccccc3)cc2)CC1 [Example 627, tert-Butyl 4-(4-oxo-5-(4-phenoxyphenyl)-4,5-dihydro-3H-1-thia-3,5,8-triazaacenaphthylene-2-carboxamido)piperidine-1-carboxylate] | 5.9 | – |
| CO[C@H]1CN(C(=O)OC(C)(C)C)C[C@@H]1NC(=O)c1sc2nccc3c2c1NC(=O)N3c1ccc(Oc2ccccc2)cc1 [Example 639, (3S,4S)-tert-Butyl 3-methoxy-4-(4-oxo-5-(4-phenoxyphenyl)-4,5-dihydro-3H-1-thia-3,5,8-triazaacenaphthylene-2-carboxamido)pyrrolidine-1-carboxylate] | 5.7 | – |
| C=CC(=O)N1CCC[C@@H](NC(=O)c2sc3nccc4c3c2NC(=O)N4c2cc(-c3cccc(F)c3F)ccc2C)C1 [Example 842, (R)—N-(1-Acryloylpiperidin-3-yl)-5-(2′,3′-difluoro-4-methyl-[1,1′-biphenyl]-3-yl)-4-oxo-4,5-dihydro-3H-1-thia-3,5,8-triazaacenaphthylene-2-carboxamide] | 7.7 | – |
| CNCCC(=O)N1CCC[C@@H](NC(=O)c2sc3nccc4c3c2NC(=O)N4c2ccc(Oc3ccccc3)cc2C)C1 [Example 106, (R)-5-(2-Methyl-4-phenoxyphenyl)-N-(1-(3-(methylamino)propanoyl)piperidin-3-yl)-4-oxo-4,5-dihydro-3H-1-thia-3,5,8-triazaacenaphthylene-2-carboxamide] | – | 7.3 |
